# Source: patent US20250332265A1, “PSMA TARGETED CONJUGATE COMPOUNDS AND USES THEREOF” (priority 2021, published 2025)
# Tests used:
# [1] = Pharmacokinetic studies based on fluorescence; type: in vivo, mice; conditions: after 4 h post injection almost all drug was cleared
# Source text: Prostate cancer is highly heterogeneous, which will affect treatment response, drug resistance and clinical outcome. The use of combination therapies with different mechanisms of action will offer potential advantages over a single therapy and it can be an effective way to deal with the ‘heterogeneity’ of cancer cells. […] The use of anticancer drugs is therefore limited by unwanted side effects. To overcome these problems, we have developed a multifunctional molecule named PSMA-1-MMAE-IR700 that combines chemotherapy, PDT, and imaging in a single molecule that is targeted to PSMA. PSMA is over expressed almost exclusively on prostate cancer (FIG. 6A). MMAE was selected as the chemotherapeutic drug because of its high potency, its wide use in antibody drug conjugates, its synergy with PDT and the fact that we have successfully targeted it to PSMA for the treatment of prostate cancer with a greater therapeutic index when compared to a PSMA-targeted antibody drug conjugate using MMAE. IR700 was selected as the photosensitizer due to its good water-solubility, its high fluorescence quantum yield and singlet oxygen yield, its long wavelength absorption (690 nm), and the fact that a cetuximab-IR700 conjugate (RM-1929) has been approved in Japan for local regional treatment of head and neck cancer. […] The fluorescence from IR700 allowed visualization of uptake studies of PSMA-1-MMAE-IR700. […]
# [2] = test system: orthotopic PC3pipGFP tumors; experiment: Detection of orthotopic tumor and lymph node metastases; type: in vivo, mice; conditions: 100 nmol/kg, 1 h post injection
# Protocol: Orthotopic PC3pipGFP prostate cancer models were established as previously described using green fluorescence protein (GFP) transfected PC3pip cells. Mice bearing orthotopic PC3pipGFP tumors were injected with 100 nmol/kg of PSMA-1-MMAE-IR700. Mice were imaged at 1 h post injection by Maestro using the yellow filter set for PSMA-1-MMAE-IR700 and blue filter set for GFP (excitation 445-490 nm, emission 515 nm longpass). Mice were then euthanized and primary tumor was removed to expose lymph nodes. The mice were imaged again. Resected primary tumor and lymph nodes were snap-frozen in optimal cutting temperature (OCT) compound and sectioned. The slides were subjected to hematoxylin and eosin (H&E) staining, and adjacent set of slides were counter stained with DAPI and observed under Leica DM4000B fluorescence microscope at 10× to visualize DAPI, GFP and PSMA-1-MMAE-IR700. Experiments were repeated in three mice.
# [3] = target: T1, PSMA (Homo sapiens, UniProt Q04609); experiment: Competition binding studies, Example 2
# T1 construct: expressed in transfected cells; host or cells: PC3pip cells (PC3 retrovirally transduced with PSMA), from Dr. Michel Sadelain, MSKCC
# Protocol: PC3pip cells ([…]) was suspended in 200 μL of 50 mM Tris buffer, pH 7.5. The cells were incubated at 37° C. with different concentrations of PSMA-1-MMAE-IR700 or ZJ24 in the presence of 12 nM of 3H-ZJ24 for 1 h. The cells were then washed 3 times with cold PBS and cell-associated radioactivity was measured by scintillation counting. The concentration required to inhibit 50% of the binding (IC50) was determined by GraphPad Prism 3.0. Studies were performed in triplicate.
# [4] = test system: PSMA-positive PC3pip cells; experiment: In vitro uptake studies, Example 2, PC3pip; type: cell-based, human; conditions: 50 nM
# Protocol: Enzymatic cleavage study of PSMA-1-MMAE-IR700 was performed as previously described. PSMA-1-MMAE-IR700 was incubated with activated human liver cathespin (Anthens Research and Technology, Anthens, GA) at 37° C. At different incubation time, 40 μL of the solution was placed into tubes loaded with 1 μL of 1 mM E64 protease inhibitor. The mixture was vortexed and then stored at −80° C. for future HPLC analysis. Studies were performed in triplicate. In vitro cellular uptake studies cells were plated on coverslips at about 60-70% confluency. Twenty-four hours later, cells were incubated with 50 nM of PSMA-1-MMAE-IR700. After incubation for various times (15 min, 30 min, 1 h and 4 h), cells were washed twice with cold RPMI 1640, fixed with 4% paraformaldehyde and counterstained with 4′,6-diamidino-2-phenylindole (DAPI). Images were taken using a Leica DM4000B fluorescence microscope (Leica Biosystems, Buffalo Gove, IL) at 40×. Blocking experiments were performed by co-incubation of cells with 50 nM of PSMA-1-MMAE-IR700 and 100× of PSMA-1 ligand. Studies were performed in triplicate.
# [5] = test system: PC3pip tumors; experiment: In vivo antitumor efficacy studies with PDT; design: species or system mice
# Protocol: The effect of PSMA-1-MMAE-IR700 were tested in mice bearing PC3pip tumors. Animals with tumor size at about 100 mm3 were used for the study (tumor volume=Length×width2/2). Animals were divided into 7 groups: (1) mice receiving PBS; (2) mice receiving 100 nmol/kg PSMA-1-MMAE-IR700 with PDT; (3) mice receiving equal doses of PSMA-1-MMAE-IR700 to group 2, but not receiving PDT; (4) Mice receiving equal doses of PSMA-1-IR700 to group 2 with PDT treatment; (5) Mice receiving equal doses of PSMA-1-IR700 to group 2 without PDT; (6) mice receiving equal doses of PSMA-1-IR700 to group 2+free MMAE with PDT (MMAE normalized to that delivered by PSMA-1-MMAE-IR700); and (7) mice receiving equal doses of PSMA-1-IR700 to group 2+free MMAE without PDT. Each group had 5 mice. Animals received drugs through tail vein injection on day 0, 4, 8, 12 and 16 and treated with 50 J/cm2 of 690 nm light at 1 h post-injection on these injection days. The dose and schedule was based on previous PSMA-1-VcMMAE work and were not optimized. Animals were imaged before and after PDT. Mice were monitored every other day for 90 days. Animals were euthanized when tumors became too large (diameter >20 mm) or animals were moribund. Data were reported as body weight over time, tumor size over time and Kaplan-Meier survival plots.
# [6] = Stability in mouse plasma; type: in vitro ADME
# Source text: To synthesize PSMA-1-MMAE-IR700 (FIG. 6A), we used a self-immolative cathespsin cleavable Vc linker to conjugate MMAE to PSMA-1-Cys-C6-Lys. IR700 was conjugated to the PSMA-1 ligand through reaction of the Lys amine (—NH2) with NHS ester as no IR700 release is required for light activation. […] Degradation of PSMA-1-MMAE-IR700 led to release of free MMAE.
# T1 sequence (Q04609 whole entry): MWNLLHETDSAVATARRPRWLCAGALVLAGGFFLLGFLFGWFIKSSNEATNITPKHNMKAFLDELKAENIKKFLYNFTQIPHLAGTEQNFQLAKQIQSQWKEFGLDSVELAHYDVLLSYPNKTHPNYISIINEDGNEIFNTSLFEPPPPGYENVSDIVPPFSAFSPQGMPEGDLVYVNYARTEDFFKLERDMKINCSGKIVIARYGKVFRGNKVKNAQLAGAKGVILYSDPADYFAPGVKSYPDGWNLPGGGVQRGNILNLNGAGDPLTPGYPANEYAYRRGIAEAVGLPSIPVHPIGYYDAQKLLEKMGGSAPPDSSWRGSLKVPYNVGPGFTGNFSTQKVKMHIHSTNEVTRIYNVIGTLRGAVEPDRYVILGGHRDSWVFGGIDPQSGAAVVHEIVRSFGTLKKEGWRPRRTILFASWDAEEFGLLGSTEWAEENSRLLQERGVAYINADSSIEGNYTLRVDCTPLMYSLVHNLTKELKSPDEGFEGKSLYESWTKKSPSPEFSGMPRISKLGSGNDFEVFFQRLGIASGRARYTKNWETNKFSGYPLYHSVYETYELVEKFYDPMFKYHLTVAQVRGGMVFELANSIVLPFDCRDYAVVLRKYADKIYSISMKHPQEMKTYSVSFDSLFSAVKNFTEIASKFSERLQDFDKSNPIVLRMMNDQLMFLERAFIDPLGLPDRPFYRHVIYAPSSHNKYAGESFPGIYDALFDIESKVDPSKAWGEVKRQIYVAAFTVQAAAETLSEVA
smiles,measurement,setting,value
CC[C@H](C)[C@@H]([C@@H](CC(=O)N1CCC[C@H]1[C@H](OC)[C@@H](C)C(=O)N[C@H](C)[C@@H](O)c1ccccc1)OC)N(C)C(=O)[C@@H](NC(=O)[C@H](C(C)C)N(C)C(=O)OCc1ccc(NC(=O)[C@H](CCCNC(N)=O)NC(=O)[C@@H](NC(=O)CCCCCN2C(=O)CC(SC[C@H](NC(=O)[C@H](CCC(=O)O)NC(=O)[C@H](CCC(=O)O)NC(=O)[C@H](CCC(=O)O)NC(=O)CCCCCNC(=O)[C@H]3CC[C@H](CNC(=O)CC[C@H](NC(=O)N[C@@H](CCC(=O)O)C(=O)O)C(=O)O)CC3)C(=O)NCCCCCC(=O)N[C@@H](CCCCNC(=O)CCCCCNC(=O)OCCCOc3cccc4c5n6c(c34)=NC3=NC(=Nc4c7ccccc7c(n4[Si]6(O[Si](C)(C)CCC[N+](CCCS(=O)(=O)[O-])(CCCS(=O)(=O)O)CCCS(=O)(=O)O)O[Si](C)(C)CCC[N+](CCCS(=O)(=O)[O-])(CCCS(=O)(=O)O)CCCS(=O)(=O)O)N=C4N=C(N=5)c5ccccc54)c4ccccc43)C(N)=O)C2=O)C(C)C)cc1)C(C)C (some centres unmarked) [PSMA-1-MMAE-IR700],clearance from the blood,[1],cleared quickly from the blood
same,fluorescence signal in primary tumor and lymph node histology,[2],only observed in cancer tissues
same,binding relative to ZJ24,[3],4.4 fold
same,fluorescence signal (uptake) in PC3pip cells,[4],observed as early as 15 min
same,fluorescence signal in PC3pip cells with 100× of PSMA-1 ligand,[4]; co-incubation,completely blocked
same,"tumor growth, with light irradiation (PDT)","[5]; 100 nmol/kg every 4 days, 5 doses, 50 J/cm^2 of 690 nm light",greatest tumor growth inhibition
same,"tumor growth, no light treatment","[5]; 100 nmol/kg every 4 days, 5 doses, no light",significantly inhibited tumor growth
same,cure rate for tumors,"[5]; 100 nmol/kg with light irradiation, 90-day period",60%
same,histological analysis of major organs on day 30,"[5]; liver, lung, heart, spleen, kidney, salivary gland and prostate",did not cause systemic toxicity
same,body weight loss,[5]; treatment groups,did not cause any body weight loss
same,half-life,[6],17.2 ± 2.8 h
